Measured values taken from the supplement of paper PMC10307832.

Tests used:
Assay in all cases: relative viability (nuclei count vs DMSO), 5 days (fraction); higher = more cells survive
Mirin + Navitoclax = compound: N=C1NC(=O)/C(=C/c2ccc(O)cc2)S1 [Mirin] + CC1(C)CCC(c2ccc(Cl)cc2)=C(CN2CCN(c3ccc(C(=O)NS(=O)(=O)c4ccc(N[C@H](CCN5CCOCC5)CSc5ccccc5)c(S(=O)(=O)C(F)(F)F)c4)cc3)CC2)C1 [Navitoclax] (partner 0.5 µM)
In short: (§1)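 Each reported value is a median over duplicate plates. It expresses relative viability: treated-well nuclei count divided by vehicle-well nuclei count. Lung cancer cell lines in 1536-well plates were dosed by pin tool a day after seeding, alone with one drug or with a fixed anchor-drug dose plus five library-drug doses (not always all listed) in √10 steps, and nuclei were counted after 5 days.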

Mirin + Pemetrexed = compound: N=C1NC(=O)/C(=C/c2ccc(O)cc2)S1 [Mirin] + Nc1nc2[nH]cc(CCc3ccc(C(=O)N[C@@H](CCC(=O)O)C(=O)O)cc3)c2c(=O)[nH]1 [Pemetrexed] (partner 0.2 µM)
In short: as §1

[1] = compound: CCn1c(-c2nonc2N)nc2cnc(Oc3cccc(NC(=O)c4ccc(OCCN5CCOCC5)cc4)c3)cc21 + Cc1cc(Nc2cc(N3CCN(C)CC3)nc(Sc3ccc(NC(=O)C4CC4)cc3)n2)n[nH]1 [Tozasertib] (partner 0.1 µM)
In short: as §1

[2] = compound: CCn1c(-c2nonc2N)nc2cnc(Oc3cccc(NC(=O)c4ccc(OCCN5CCOCC5)cc4)c3)cc21 + CC(C)C[C@H](NC(=O)[C@H](Cc1ccccc1)NC(=O)c1cnccn1)B(O)O [Bortezomib] (partner 0.002 µM)
In short: as §1

Row | Cell Line | relative viability (Mirin + Navitoclax; first compound 0.25 µM) | relative viability (Mirin + Navitoclax; first compound 0.7906 µM) | relative viability (Mirin + Navitoclax; first compound 2.5 µM) | relative viability (Mirin + Navitoclax; first compound 7.906 µM) | relative viability (Mirin + Navitoclax; first compound 25 µM) | relative viability (Mirin + Pemetrexed; first compound 0.25 µM) | relative viability (Mirin + Pemetrexed; first compound 0.7906 µM) | relative viability (Mirin + Pemetrexed; first compound 2.5 µM) | relative viability (Mirin + Pemetrexed; first compound 7.906 µM) | relative viability (Mirin + Pemetrexed; first compound 25 µM) | relative viability ([1]; first compound 0.04 µM) | relative viability ([1]; first compound 0.1265 µM) | relative viability ([1]; first compound 0.4 µM) | relative viability ([1]; first compound 1.265 µM) | relative viability ([1]; first compound 4 µM) | relative viability ([2]; first compound 0.04 µM) | relative viability ([2]; first compound 0.1265 µM) | relative viability ([2]; first compound 0.4 µM) | relative viability ([2]; first compound 1.265 µM) | relative viability ([2]; first compound 4 µM)
1 | NCI-H2170 | 0.698 | 0.51 | 0.659 | 0.521 | 0.375 | 0.249 | 0.282 | 0.268 | 0.263 | 0.28 | 0.743 | 0.651 | 0.786 | 0.553 | 0.515 |  |  |  |  | 
2 | HCC-366 | 1.1 | 1.02 | 1.06 | 1.1 | 0.958 | 0.178 | 0.251 | 0.177 | 0.167 | 0.218 | 0.134 | 0.105 | 0.0696 | 0.0938 | 0.0791 | 1.32 | 1.11 | 0.151 | 0.0688 | 0.0348
3 | NCI-H2405 | 0.812 | 0.97 | 0.742 | 0.641 | 0.73 | 1.1 |  | 1.16 | 1.14 | 1.07 | 0.874 | 0.794 | 0.345 | 0.224 | 0.24 | 1.05 | 0.744 | 0.348 | 0.277 | 0.973
4 | COR-L 105 | 1.02 | 0.817 | 0.884 | 0.703 | 0.719 | 1.08 | 1.21 | 1.11 | 1.11 | 1.07 | 0.339 | 0.3 | 0.308 | 0.308 | 0.308 | 0.734 | 0.625 | 0.519 | 0.319 | 0.319
5 | 201T | 1.18 | 1.27 | 1.18 | 1.32 | 1.33 | 0.307 | 0.309 | 0.337 | 0.336 | 0.302 | 1.02 | 0.937 | 0.958 | 0.919 | 1.01 | 1.06 | 1.02 | 1.11 | 1.02 | 1.03
6 | NCI-H2228 | 1.2 | 0.972 | 1.35 | 1.18 | 1.03 | 0.394 | 0.301 | 0.291 | 0.315 | 0.364 | 0.297 | 0.28 | 0.247 | 0.208 | 0.166 | 1.12 | 0.897 | 0.921 | 0.591 | 0.839
7 | LC-2-ad | 0.452 | 0.673 | 0.466 | 0.36 | 0.401 | 0.266 | 0.271 | 0.254 | 0.288 | 0.264 | 0.517 | 0.365 | 0.418 | 0.294 | 0.328 | 1.1 | 0.936 | 0.756 | 0.448 | 0.281
8 | NCI-H2085 | 0.978 | 1.17 | 1.25 | 1.12 | 1.09 | 0.919 | 1.03 | 0.932 | 0.925 | 0.932 | 0.961 | 0.8 | 0.733 | 0.633 | 0.538 | 1.11 | 1.01 | 0.86 | 0.872 | 0.861
9 | NCI-H358 |  |  |  |  |  | 0.162 | 0.176 | 0.182 | 0.161 | 0.143 | 0.0993 | 0.102 | 0.116 | 0.0599 | 0.0812 |  |  |  |  | 
10 | H3255 | 0.499 | 0.59 | 0.628 | 0.513 | 0.47 | 0.525 | 0.605 | 0.626 | 0.54 | 0.571 | 0.758 | 0.5 | 0.706 | 0.377 | 0.325 | 1.03 | 0.9 | 0.728 | 0.526 | 0.531
11 | NCI-H23 | 0.941 |  | 0.783 | 0.682 | 0.71 | 0.782 |  | 0.643 | 0.598 | 0.541 | 0.364 | 0.34 | 0.333 | 0.291 | 0.322 | 1.44 | 1.16 |  | 0.856 | 0.512
12 | CAL-12T | 0.854 | 1.49 | 1.26 | 1.26 | 1.66 | 1.15 | 1.11 | 1.15 | 1.29 | 1.37 | 0.433 | 0.297 | 0.28 | 0.186 | 0.189 | 1.23 | 1.08 | 0.834 |  | 0.678
13 | A-427 | 0.942 |  | 0.955 | 0.941 | 1.11 | 1 | 0.957 | 1.02 | 0.991 | 0.934 | 0.189 | 0.234 | 0.228 | 0.182 | 0.186 | 1.16 | 0.952 | 0.892 | 0.946 | 0.475
14 | HARA | 1.07 | 1.21 | 1.14 | 1.28 | 1.2 | 0.235 |  | 0.236 | 0.227 | 0.293 | 0.11 | 0.0979 | 0.093 | 0.13 | 0.0876 | 1.19 | 0.943 | 0.36 | 0.176 | 0.145
15 | NCI-H1793 | 0.55 | 0.36 | 0.395 | 0.656 | 0.371 | 0.862 |  | 0.895 | 1.11 | 0.977 | 0.332 | 0.473 | 0.341 | 0.307 | 0.293 |  |  |  |  | 
16 | NCI-H1623 |  |  |  |  |  |  |  |  |  |  | 0.473 | 0.396 | 0.369 | 0.346 | 0.457 |  |  |  |  | 
17 | NCI-H2009 | 1.17 | 1.3 | 1.18 | 1.11 | 1.2 | 1.05 | 1.11 | 1.01 | 0.964 | 1.16 | 0.745 | 0.635 | 0.53 | 0.331 | 0.275 | 1.06 | 0.875 | 0.647 | 0.322 | 0.318
18 | ABC-1 |  |  |  |  |  |  |  |  |  |  | 0.137 | 0.153 | 0.156 | 0.209 | 0.176 | 0.483 | 0.302 | 0.262 | 0.256 | 0.285
